Where a name gives a salt, the structure may show the parent alone.
These compounds were tested against T1, human PAR2 receptor (Homo sapiens, UniProt P55085) (assay: PAR2 antagonist activity, calcium flux FLIPR assay (trypsin challenge)). Conditions: not given.
T1 construct: expressed in transfected cells; host or cells: 1321N1 cells
T1 sequence (P55085 26-397): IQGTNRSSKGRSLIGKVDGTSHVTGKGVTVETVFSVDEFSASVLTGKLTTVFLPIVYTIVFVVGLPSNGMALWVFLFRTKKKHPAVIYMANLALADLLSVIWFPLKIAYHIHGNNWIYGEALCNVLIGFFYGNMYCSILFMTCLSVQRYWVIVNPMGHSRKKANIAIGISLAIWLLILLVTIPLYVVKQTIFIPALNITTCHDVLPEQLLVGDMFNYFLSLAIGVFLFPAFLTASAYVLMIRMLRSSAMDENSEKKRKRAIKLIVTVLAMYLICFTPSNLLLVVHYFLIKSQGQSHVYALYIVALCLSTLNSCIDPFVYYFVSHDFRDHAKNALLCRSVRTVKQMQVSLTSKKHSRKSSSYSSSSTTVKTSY
Type: cell-based
Method: The PAR2 receptor couples through the Gq signaling pathway and results in activation of calcium mobilization. The functional activity of test compounds was routinely tested by measuring the ability of compounds to antagonize PAR2 (trypsin challenge) activity in a dose dependent manner, in 1321N1 cells transfected with the human PAR2 receptor, using a calcium flux Fluorescent Imaging Plate Reader FLIPR assay.
Briefly, test compounds were dissolved in DMSO to a concentration of 20 mM and stored in matrix screenmate racks. […] The compounds were then transferred to 384-well assay plates ready for use. […] The assay buffer used was HBSS buffer supplemented with 20 mM HEPES and 0.1% BSA (protease free), pH7.4. The loading/wash buffers were the same as the assay buffer.
Sub-cultivations were performed every 2-3 d. […] After washing, the cells were loaded with Fluo-4 AM dye (Molecular probes) at 2 μM containing 0.48 μg/mL pluronic acid for 60 min at 37° C. under 5% CO2.
A combined agonist/antagonist protocol was used to measure changes in intracellular calcium concentration. Compound (antagonist) was added to the cell plate using a Fluorometric Imaging Plate Reader (FLIPR) (Molecular Devices, Sunnyvale, Calif., USA). Basal fluorescence was recorded every second for 10 seconds prior to compound addition (10 μl) and fluorescence recorded every second for 1 min then every 6 seconds for a further 1 min. Trypsin (EC50 concentration) was then added using the FLIPR and fluorescence recorded as described above. Curve-fitting and parameter estimation were carried out using GraphPad Prism 4.0 (GraphPad Software Inc., San Diego, Calif.).

**Q.** `O=C(NCc1ccc2nc[nH]c2c1)N1CCC(Nc2ccc(F)cc2)CC1` [Example 58, N-(1H-1,3-Benzodiazol-6-ylmethyl)-4-[(4-fluorophenyl)amino]piperidine-1-carboxamide] was tested. Which IC50 did it give?
**A.** The IC50 was 20 to 50 µM.

Same assay, conditions: 1321N1 cells transfected with the human PAR2 receptor; trypsin (EC50 concentration) challenge; calcium flux FLIPR; read-out: PAR2 IC50

**Q.** For `NCc1ccc(CNC(=O)N2CCC(Cc3ccccc3)CC2)cc1F` [Example 35, N-{[4-(Aminomethyl)-3-fluorophenyl]methyl}-4-benzylpiperidine-1-carboxamide], which IC50 is on record?
**A.** Its IC50 is under 5 µM.

**Q.** Which IC50 does the source give for `N=C(N)c1ccc(CNC(=O)N2CCC(Cc3ccccc3)CC2)cc1` [Example 36, 4-Benzyl-N-[(4-carbamimidoylphenyl)methyl]piperidine-1-carboxamide] here?
**A.** Its IC50 is under 5 µM.

**Q.** How did the IC50 turn out when `CNC(=N)c1ccc(CNC(=O)N2CCC(Cc3ccccc3)CC2)cc1` [Example 37, 2,2,2-Trifluoroacetic acid; 4-benzyl-N-{[4-(N-methylcarbamimidoyl)phen-yl]methyl} piperidine-1-carboxamide] was run?
**A.** The IC50 was 20 to 50 µM.

**Q.** How did the IC50 turn out when `CN(C)C(=N)c1ccc(CNC(=O)N2CCC(Cc3ccccc3)CC2)cc1` [Example 38, 2,2,2-Trifluoroacetic acid; 4-benzyl-N-{[4-(N,N-dimethylcar-bamimidoyl)phen-yl]methyl} piperidine-1-carboxamide] was run?
**A.** Its IC50 is 5 to 20 µM.

**Q.** How did the IC50 turn out when `O=C(NCc1ccc(C2=NCCN2)cc1)N1CCC(Cc2ccccc2)CC1` [Example 39, 4-Benzyl-N-{[4-(4,5-dihydro-1H-imidazol-2-yl)phenyl]methyl}piperidine-1-carboxamide] was run?
**A.** Its IC50 is 20 to 50 µM.

**Q.** `N=C(N)c1ccc(CNC(=O)N2CCC(Cc3ccncc3)CC2)cc1` [Example 40, N-[(4-Carbamimidoylphen-yl)methyl]-4-(pyridin-4-ylmethyl)piperi-dine-1-carboxamide] was tested. Which IC50 did it give?
**A.** The IC50 was under 5 µM.

**Q.** Which IC50 does the source give for `N=C(N)c1ccc(CNC(=O)N2CCC(c3ccccc3)C2)cc1` (stereo not shown) [Example 41, N-[(4-Carbamimidoylphen-yl)methyl]-3-phenylpyrrolidine-1-carboxamide hydrochloride] here?
**A.** Its IC50 is 5 to 20 µM.

**Q.** Which IC50 does the source give for `N=C(N)c1ccc(CNC(=O)N2CCN(Cc3ccccc3)CC2)cc1` [Example 42, 4-Benzyl-N-[(4-carbamimidoylphenyl)meth-yl]piperazine-1-carboxamide dihydrochloride] here?
**A.** Its IC50 is under 5 µM.

**Q.** Which IC50 does the source give for `CN(Cc1ccc(C(=N)N)cc1)C(=O)N1CCC(Cc2ccccc2)CC1` [Example 43, 4-Benzyl-N-[(4-carbamimidoylphenyl)methyl]-N-methylpiperidine-1-carboxamide hydrochloride] here?
**A.** The IC50 was 5 to 20 µM.

**Q.** Which IC50 does the source give for `N=C(N)c1ccc(CNC(=O)C2CCN(Cc3ccccc3)CC2)cc1` [Example 44, 1-Benzyl-N-[(4-carbamimidoylphenyl)meth-yl]piperidine-4-carboxamide dihydrochloride] here?
**A.** Its IC50 is 5 to 20 µM.

**Q.** For `N=C(N)c1ccc(CNC(=O)N2CCC(Cc3ccccc3)CC2)cc1F` [Example 45, 4-Benzyl-N-[(4-carbamimidoyl-3-fluorophenyl)meth-yl]piperidine-1-carboxamide hydrochloride], which IC50 is on record?
**A.** Its IC50 is under 5 µM.

**Q.** How did the IC50 turn out when `N=C(N)c1ccc(CNC(=O)N2CCC(Cc3cccc(O)c3)CC2)cc1` [Example 47, N-[(4-Carbamimidoylphen-yl)methyl]-4-[(3-hydroxyphenyl)meth-yl]piperidine-1-carboxamide hydrochloride] was run?
**A.** The IC50 was under 5 µM.

**Q.** For `N=C(N)c1ccc(CNC(=O)N2CCC(Cc3ccccc3)CC2)cn1` [Example 50, 4-Benzyl-N-[(6-carbam-imidoylpyridin-3-yl)methyl]piperidine-1-carboxamide hydrochloride], which IC50 is on record?
**A.** Its IC50 is under 5 µM.

**Q.** `O=C(NCc1ccc(-c2ncc[nH]2)cc1)N1CCC(Cc2ccccc2)CC1` [Example 51, 4-Benzyl-N-{[4-(1H-imidazol-2-yl)phenyl]methyl}piperidine-1-carboxamide] was tested. Which IC50 did it give?
**A.** Its IC50 is 20 to 50 µM.

**Q.** How did the IC50 turn out when `O=C(NCc1ccc2nc[nH]c2c1)N1CCC(Cc2ccccc2)CC1` [Example 52, N-(1H-1,3-Benzodiazol-6-ylmethyl)-4-benzylpiperidine-1-carboxamide] was run?
**A.** The IC50 was 5 to 20 µM.

**Q.** Which IC50 does the source give for `O=C(NCc1cc2cnccc2[nH]1)N1CCC(Cc2ccccc2)CC1` [Example 53, 4-Benzyl-N-{1H-pyrrolo[3,2-c]pyridin-2-ylmethyl}piperidine-1-carboxamide] here?
**A.** Its IC50 is 20 to 50 µM.

**Q.** With `Cn1cnc2ccc(CNC(=O)N3CCC(Cc4ccccc4)CC3)cc21` [Example 54, 4-Benzyl-N-[(1-methyl-1H-1,3-benzodiazol-6-yl)methyl]piperidine-1-carboxamide] as the compound, how does the IC50 read?
**A.** The IC50 was 50 to 100 µM.

**Q.** For `O=C(NCc1ccc2nc[nH]c2c1)N1CCC(Oc2ccc(F)cc2)CC1` [Example 55, N-(1H-1,3-Benzodiazol-6-ylmethyl)-4-(4-fluorophenoxy)piperidine-1-carboxamide], which IC50 is on record?
**A.** Its IC50 is 20 to 50 µM.

**Q.** Which IC50 does the source give for `COc1ccc(CC2CCN(C(=O)NCc3ccc4nc[nH]c4c3)CC2)cc1` [Example 56, N-(1H-1,3-Benzodiazol-6-ylmethyl)-4-[(4-methoxyphenyl)methyl] piperidine-1-carboxamide] here?
**A.** Its IC50 is 20 to 50 µM.

**Q.** With `O=C(NCc1ccc2nc[nH]c2c1)N1CCC(Cc2ccncc2)CC1` [Example 57, N-(1H-1,3-Benzodiazol-6-ylmethyl)-4-(pyridin-4-ylmethyl)piperidine-1-carboxamide] as the compound, how does the IC50 read?
**A.** The IC50 was 20 to 50 µM.

**Q.** How did the IC50 turn out when `O=C(NCc1ccc2nc[nH]c2c1)N1CCC(c2ccccc2)C1` (stereo not shown) [Example 59, 2,2,2-Trifluoroacetic acid; N-(1H-1,3-benzodiazol-5-ylmethyl)-3-phenylpyrrolidine-1-carboxamide] was run?
**A.** Its IC50 is 5 to 20 µM.

**Q.** For `O=C(NCc1ccc2nc[nH]c2c1)N1CCC(Cc2ccccc2)C1` (stereo not shown) [Example 60, 2,2,2-Trifluoroacetic acid; N-(1H-1,3-benzodiazol-5-ylmethyl)-3-benzylpyrrolidine-1-carboxamide], which IC50 is on record?
**A.** The IC50 was 5 to 20 µM.

**Q.** With `O=C(NCc1ccc2nn[nH]c2c1)N1CCC(Cc2ccccc2)CC1` [Example 61, N-(1H-1,2,3-Benzotriazol-6-ylmethyl)-4-benzylpiperidine-1-carboxamide] as the compound, how does the IC50 read?
**A.** Its IC50 is 50 to 100 µM.

**Q.** With `Nc1nc2ccc(CNC(=O)N3CCC(Cc4ccccc4)CC3)cc2[nH]1` [Example 62, N-[(2-Amino-1H-1,3-benzodiazol-6-yl)methyl]-4-benzylpiperidine-1-carboxamide] as the compound, how does the IC50 read?
**A.** Its IC50 is 5 to 20 µM.

**Q.** How did the IC50 turn out when `N=C(N)Nc1ccc(CNC(=O)N2CCC(Cc3ccccc3)CC2)cc1` [Example 63, 2,2,2-Trifluoroacetic acid; 4-benzyl-N-[(4-carbamimidamidophenyl)methyl]piperidine-1-carboxamide] was run?
**A.** The IC50 was 5 to 20 µM.

**Q.** `O=C(NCc1ccc2c(c1)CNC2)N1CCC(Cc2ccccc2)CC1` [Example 64, 4-Benzyl-N-(2,3-dihydro-1H-isoindol-5-ylmeth-yl)piperidine-1-carboxamide] was tested. Which IC50 did it give?
**A.** Its IC50 is 5 to 20 µM.

**Q.** For `O=C(NCc1ccc2c(c1)CNC2)N1CCC(Cc2ccncc2)CC1` [Example 65, N-(2,3-Dihydro-1H-isoindol-5-ylmethyl)-4-(pyridin-4-ylmethyl)piperidine-1-carboxamide dihydrochloride], which IC50 is on record?
**A.** Its IC50 is 50 to 100 µM.

**Q.** With `O=C(NCc1ccc2c(c1)CNC2)N1CCC(Oc2ccc(F)cc2)CC1` [Example 66, N-(2,3-Dihydro-1H-isoindol-5-ylmethyl)-4-(4-fluorophenoxy) piperidine-1-carboxamide hydrochloride] as the compound, how does the IC50 read?
**A.** The IC50 was 20 to 50 µM.

**Q.** Which IC50 does the source give for `NCc1cccc(CNC(=O)N2CCC(Cc3ccccc3)CC2)c1` [Example 67, N-{[3-(Aminometh-yl)phen-yl]methyl}-4-benzylpiperidine-1-carboxamide] here?
**A.** The IC50 was 50 to 100 µM.

**Q.** For `NCCCCCNC(=O)N1CCC(Cc2ccccc2)CC1` [Example 68, N-(5-Aminopentyl)-4-benzylpiperidine-1-carboxamide], which IC50 is on record?
**A.** The IC50 was 20 to 50 µM.

From patent US20130324556A1, “Protease Activated Receptor 2 (PAR2) Antagonists” (priority 2011, published 2013)
